SMILES strings stand for the structures.

This experiment concerns HUVEC TNFa-induced VCAM-1 surface expression, immunofluorescence imaging. Description: inhibitors of TNFa-induced VCAM-1 surface display, imaging, high-content imaging, pooled HUVEC, TNFa stimulus (AID 456).
On to `Cc1oc(-c2cccc(Cl)c2)nc1CN1CCC(C(=O)N2CCN(c3ccccc3F)CC2)CC1`, for which the IC50 (as a rule, the concentration needed to halve the response being measured) was 8.7 µM.

On to `C=CS(=O)(=O)c1ccc(Oc2ccc(S(=O)(=O)C=C)cc2)cc1`, for which the IC50 is 1.2 µM.

Turning to `O=S1(=O)C=C(Sc2nc3ccccc3s2)c2ccccc21`, the IC50 was 2.35 µM.

Turning to `Oc1ccc(Nc2nc(-c3ccc(O)cc3)cs2)cc1`, the IC50 was 11.6 µM.

Take `C/C=C(\CS(=O)(=O)c1ccccc1)S(=O)(=O)c1ccccc1`: the IC50 was 6.39 µM.

With `CCOC(=O)c1ccc(N=c2sc(C(=O)OC)cc(=O)n2Cc2ccco2)cc1`, the IC50 was 4.92 µM.

With `S=C(NCC1CCCO1)n1nnc2ccccc21` (configuration not stated), the IC50 was 8.83 µM.

Take `Cc1nc2sccn2c(=O)c1CCN1CCC(=C(c2ccccc2)c2ccc(F)cc2)CC1`: the IC50 is 11.5 µM.

With `CCN1C(=O)c2cccc3c(NC(=O)c4ccc(S(=O)(=O)N(C)C)cc4)ccc1c23`, the IC50 was 12.1 µM.

As for `CN(C)CCCN1c2ccccc2Sc2ccc(Cl)cc21`, the IC50 was 8.47 µM.

Regarding `CS(=O)(=O)c1ncc(Cl)c(C(=O)Nc2ccc(N3CCOCC3)cc2)n1`, the 50% inhibitory concentration (IC50) is 6.5 µM.

Consider `N#Cc1cc2sc3nnc(-c4ccncc4)n3c2cc1C#N`, for which the IC50 is 13.7 µM.

On to `CN(C)CCCN1c2ccccc2CCc2ccc(Cl)cc21`, for which the IC50 was 10.2 µM.

Turning to `CC(C)C[C@H]1C(=O)N2CCC[C@H]2[C@]2(O)O[C@](NC(=O)[C@@H]3C=C4c5cccc6[nH]c(Br)c(c56)CC4N(C)C3)(C(C)C)C(=O)N12` (some centres not stated), the IC50 is 11 µM.

In the case of `O=C1CCn2nc(-c3ccc(Cl)cc3)cc2N1`, the IC50 is 12.3 µM.

As to `Clc1ccc(OCc2nnc(SCCN3CCCCC3)n2Cc2ccco2)cc1`, the IC50 is 13.9 µM.

Take `O=C(Cn1nc(-c2ccc(Cl)cc2)ccc1=O)NCCCN1CCN(Cc2ccccc2)CC1`: the IC50 was 16.9 µM.

These data come from PubChem BioAssay AID456 (Sanford-Burnham Center for Chemical Genomics, 2006).
